Tests used:
Type in all cases: in vivo
uterine bleeding [1] = test: Case: person with Acute Lymphotic Leukemia, thrombocytopenia and uterine bleeding, oral treatment
Method: A post-pubertal person is consulting for fever, infections, uterine bleeding, petechia and dyspnea. Blood test identifies anemia (Hb 7.8 g/dL), normal leucocyte count (WBC 8657 cells/μL) and thrombocytopenia (platelets: 13.476 cells/mm^3). […] A diagnosis of Acute Lymphotic Leukemia is confirmed. The patient undergoes blood and platelet transfusion to correct for anemia and coagulation disorder. On the same day, they start taking orally 10 mg/day of CDB-2914. […] On that day, Hb is 9.9 g/dL; WBC 6345 cells/μL; and platelet count is 42 000 cells/mm^3. They continue taking orally 10 mg/day of CDB2914 for controlling abnormal uterine bleeding. […] After 3 months, they achieve remission, Hb is 13.1 g/dL; leucocyte count is normal, platelet count is 176 000 cells/mm^3. Bone marrow biopsy confirmed normalization.

uterine bleeding [2] = test: Case: person with stage III Hodgkin disease, prevention of uterine bleeding during chemotherapy and irradiation; conditions: 10 mg/day orally, started before chemotherapy (MOPP) and irradiation
Excerpt: A person is consulting for pneumonia. They report a recent history of night sweats and weight loss. […] The diagnosis is a stage III of Hodgkin disease. Their condition indicates chemotherapy (MOPP) and extended irradiation. The main risk of the proposed therapy is bone marrow suppression. This is life-threatening by exposing the patient to severe infection and septicemia, but it is also associated with severe thrombopenia and diffuse bleeding including uterine bleeding. In order to prevent uterine bleeding, before initiating specific treatment for their Hodgkin disease, they are orally administered 10 mg/day of CDB-2914. Following initiation of chemotherapy and irradiation, severe bone marrow suppression is recorded and the patient is admitted in aseptic unit. […] CBD2914 administration is maintained as long as coagulation parameters are not normalized.

uterine bleeding [3] = test: Case: person on anticoagulant therapy with menorrhagia, oral treatment
Method: A moderate smoker with a BMI at 32 is treated with anticoagulant therapy for an episode of pulmonary embolism resulting from a deep venous thrombosis in a leg. Despite effort to adapt their anticoagulation therapy, their menstruations are heavy (menorrhagia) and last for up to two weeks. Their Hb is at 9.2 gr/dL. […] Their thrombo-embolic condition precludes any therapy with oestrogens or progestins. Given, the absence of negative metabolic and pro-thrombotic effect of SPRM, they are orally administered 25 mg/day of Proellex® (CDB-4124). […] Their Hb progressively returned to normal (>12 gd/dL).

| Compound | uterine bleeding during continued treatment (uterine bleeding [1]; 10 mg/day orally, 3 months, several episodes of thrombopenia and chemotherapy cycles, except for a few spotting) | time following initiation of treatment until uterine bleeding is stopped (uterine bleeding [1]; 10 mg/day orally, blood and platelet transfusion on the same day) | menstrual bleeding after treatment is stopped (uterine bleeding [1]; after 3 months, remission) | uterine bleeding despite severe thrombopenia (uterine bleeding [2]) | uterine bleeding after start of treatment (uterine bleeding [3]; 25 mg/day orally) | uterine bleeding during the 12 weeks of anticoagulation therapy (uterine bleeding [3]; 25 mg/day orally) | Hb (uterine bleeding [3]; 25 mg/day orally, 9.2 gr/dL before treatment, progressively returned to normal) | menstruations after treatment is stopped (uterine bleeding [3]; after anticoagulation therapy is stopped) |
| --- | --- | --- | --- | --- | --- | --- | --- | --- |
| CC(=O)O[C@]1(C(C)=O)CC[C@H]2[C@@H]3CCC4=CC(=O)CCC4=C3[C@@H](c3ccc(N(C)C)cc3)C[C@@]21C [CDB-2914] | remains in amenorrhea | 5 days | regular, normal menstrual bleeding are restored | remains in amenorrhea | – | – | – | – |
| COCC(=O)[C@@]1(OC(C)=O)CC[C@H]2[C@@H]3CCC4=CC(=O)CCC4=C3[C@@H](c3ccc(N(C)C)cc3)C[C@@]21C [Proellex, 17[alpha]-acetoxy-21-methoxy-11β-[4-N,N-dimethylaminophenyl]-19-norpregna-4,9-diene-3,20-dione] | – | – | – | – | stopped after a few days | remain amenorrheic | > 12 gd/dL | resumed normal menstruations |

Reference: patent publication US8569274B2, “Progesterone antagonist and selective progesterone modulator in the treatment of excessive uterine bleeding” (Preglem S.A., priority 2007, dated 2013)
